“Also recorded” adds a separate entry of the source.
Columns and labels:
PGRN-SORT1 interaction = assay: PGRN-SORT1 co-immunoprecipitation; assay type: biochemical, human; conditions: HEK293 lysate with Flag-SORT1, 100 nM rPGRN, peptide at 10 M (sic; method 20 μM), densitometry
Method: HEK293T cells were transfected empty vector or pCMV-SORT1-Flag vector for 48 h. Then, cells were lysed by using Co-IP buffer. Pre-incubation was performed with 300 μg of lysate protein mixed with 20 μM NTS, human PGRN(588–593) peptide or mouse PGRN(584–589) peptide for 1 h. Then, rPGRN (100 nM) was added into the protein G beads pre-cleared supernatant and mixed for 30 min. Next, anti-Flag M2 agarose (Sigma) was added and mixed for another 4 h. The agarose was collected by centrifugation at 1000 g for 3 min and washed with Co-IP buffer six times. Captured protein was eluted from the beads using loading buffer and analyzed by western blot.

[1] = system: SORT1-mediated PGRN endocytosis; assay: Quantitative DyL-rPGRN endocytosis assay in COS-1^SORT1 cells; assay type: cell-based, human; conditions: 1 h; for inhibition of full-length PGRN endocytosis: COS-1^SORT1, ligand 10 μM (Fig. 4 legend), added simultaneously with DyL-rPGRN, vs vehicle
Method: COS-1 cells seeded on a 96-well black plate 1 day before were transfected with pCMV-SORT1 vector. After 24 h, cells were treated with fluorescence-tagged rPGRN (DyL-rPGRN) pre-labeled by DyLight™ 594 antibody labeling kit (Thermo Scientific). The DyL-rPGRN was diluted in OptiMEM to tested concentrations and incubated with the cells for 1 h for endocytosis. The cells were then washed with cold PBS and then fixed by 4% paraformaldehyde. After washing twice, each well was filled with PBS prior scanning. The total PGRN fluorescent signal from the cells was obtained by a plate reader with 593/618 nm (Ex/Em) settings. The endocytosis signal was normalized by the total nuclei signal obtained by staining with a Hoechst 33342 dye. Baseline endocytosis signal was defined as a signal from medium-only-treated cells, whereas the 100% endocytosis level was set as the signal obtained from cells treated with 50 nM DyL-rPGRN. For testing SORT1 ligands, DyL-rPGRN and the peptide were added simultaneously to the cells. For testing of PGRN binders, the binder was pre-incubated with DyL-rPGRN for 1 h before adding to the cells. For qualitative analysis, images from each well were captured by BD Pathway 855 system using a 20× magnification setting.

SORT1–PGRN interaction = assay: MSD-based SORT1–PGRN interaction assay; assay type: biochemical, human; conditions: 200 nM tagged rPGRN, SORT1-Flag captured on MSD plate
Method: M17 cells were transfected with pCMV-SORT1-Flag for 48 h. Then, the cell lysate was harvested by the same method used in the co-immunoprecipitation assay. Expression of SORT1-Flag protein was confirmed by western blot. MSD plate was first coated with the Flag M2 antibody (Sigma). Following an overnight incubation at 4°C, the plate was blocked for 2 h and then washed prior to addition of 5 µg/well of lysate protein containing SORT1-Flag protein. After overnight incubation at 4°C, it was then washed and added with 200 nM of either N-6His- or C-6His-tagged rPGRN pre-incubated with either vehicle, 20 µM or 200 µM of BVFP, for 30 min at room temperature. Then plate was then incubated for 2 h, washed and incubated with a mixture of PCDGF antibody and a SULFO-TAG-labeled anti-rabbit IgG antibody for 2 h. After final wash, the plate was read by the MSD Sector Imager 2400.

SORT1 [2] = assay: PGRN endocytosis in M17 cells overexpressing SORT1; assay type: cell-based; conditions: for endocytosis of rPGRN: M17^SORT1 cells, rPGRN 500 ng/ml, 60 min, immunofluorescence
Method: M17 cells seeded in 12-well culture plates (western blot) or on glass coverslips in 24-well culture plate (immunofluorescence) were transfected with pEGFP-N1 (Clontech) or pCMV-SORT1 (OriGene) vectors. Next day, the cells were changed into serum-free medium 1 h before addition of rPGRN (500 ng/ml) and treated for 60 min. The cells were then put on ice and washed with cold PBS. For western blot, cells were lysed in cold M-Per protein extraction buffer followed by standard procedures as mentioned. For immunofluorescence analyses, cells were fixed in 4% paraformaldehyde solution followed by PBS washes. The cells were then incubated in blocking buffer (PBS, 5% goat serum, 0.1% saponin) for 1 h at room temperature followed by incubation in primary antibody overnight at 4°C. The cells were incubated with secondary antibodies (1:1000) for 1 h at room temperature. The coverslips were then mounted onto slides and waited overnight before analysis. Image analysis was performed by Zeiss LSM 510 META confocal microscope using 60× magnification setting.

neutrophil elastase = assay: Neutrophil elastase digestion of synthetic PGRN peptide, MALDI-MS; assay type: in vitro ADME
Method: An enzymatic reaction was set up with 7 μg of custom-synthesized PGRN(584–593) peptide (Mayo peptide synthesis core) and 20 μg of NE in a 25 μl reaction at 37°C. Every 10 min, 4 μl of the mixture was collected and diluted 10 times in a solvent mixture (50% acetonitrile:50% water:0.1% acetic acid) until 1 h had passed. For MALDI-MS analysis, 1 μl of the diluted reaction mixture was dried on a MS gold chip and then layered with a concentrated sinipinic acid matrix on top for crystallization. Afterwards, the samples were analyzed by the Bio-Rad MALDI-MS system.

[3] = system: PGRN endocytosis in SORT1^KO-hESCs; assay: DyL-rPGRN endocytosis in SORT1^KO-hESCs; assay type: cell-based, human; conditions: SORT1^KO-hESC compared with WT-hESC
From the text: To determine whether BVFP, when bound to PGRN, disrupts full-length PGRN and SORT1 binding, we devised a SORT1-dependent rPGRN precipitation assay utilizing the Meso-Scale Discovery (MSD) system (Supplementary Material, Fig. S4A and B). […] To include a higher-affinity PGRN588–593 motif binder as a positive control, an antibody targeting the motif, PGRN-CT antibody, was made for validating the approach (Fig. 5F). […] First, we found SORT1 was abundantly expressed in the wild-type hESCs (Fig. 5H). Similar to the results from COS-1^SORT1 cells, BVFP and PGRN-CT antibody inhibited endocytosis of DyL-rPGRN by 22 and 39%, respectively, under the same experimental conditions in wild-type hESCs (Fig. 5I left).
COS-1 cells seeded on a 96-well black plate 1 day before were transfected with pCMV-SORT1 vector. After 24 h, cells were treated with fluorescence-tagged rPGRN (DyL-rPGRN) pre-labeled by DyLight™ 594 antibody labeling kit (Thermo Scientific). The DyL-rPGRN was diluted in OptiMEM to tested concentrations and incubated with the cells for 1 h for endocytosis. The cells were then washed with cold PBS and then fixed by 4% paraformaldehyde. After washing twice, each well was filled with PBS prior scanning. The total PGRN fluorescent signal from the cells was obtained by a plate reader with 593/618 nm (Ex/Em) settings. […]

SORT1 [4] = assay: SORT1 protein level in M17 cells (western blot); assay type: cell-based; conditions: M17, rPGRN at 50 ng/ml, 1, 2 and 4 hours
Method: PGRN, SORT1, GFP, GAPDH and β-actin proteins were analyzed using 10% Tris–glycine polyacrylamide gel by SDS–PAGE. After electrophoresis, proteins on gel were transblotted to PVDF membranes followed by standard immunoblotting protocols.

For “ALRQLL [human PGRN588–593, custom-synthesized C-terminal peptide of human PGRN, -ALRQLL]”, the “inhibition of PGRN–SORT1 co-immunoprecipitation” value (PGRN-SORT1 interaction) was “significantly reduced the amount of rPGRN” and the “inhibition of full-length PGRN endocytosis” value [1] was 93%.

With “ELYENKPRRPYIL [NTS, neurotensin, reference compound]” the “inhibition of PGRN–SORT1 co-immunoprecipitation” value (PGRN-SORT1 interaction) was “significantly reduced the amount of rPGRN” and the “inhibition of full-length PGRN endocytosis” value [1] was 90%.

“N-rP: human recombinant PGRN with 6-histidine tag on the amino-terminus” was tested, and the “rPGRN binding to immobilized SORT1” value (SORT1–PGRN interaction) was “specific binding signal” and the “endocytosis of tagged rPGRN” value (SORT1 [2]; M17 cells expressing titrated amounts of SORT1, western blot) was “dependently endocytosed”.

In the case of “PGRN574–593 peptide: synthetic PGRN574–593 peptide, molecular weight 2430 Da”, the “cleavage by neutrophil elastase” value (neutrophil elastase; 7 μg peptide, 20 μg NE, 25 μl, 37°C, sampled every 10 min to 1 h) is reported as “enzymatically cleaved by recombinant elastase (EL) in a time-dependent manner” and the “cleavage site / residues removed by elastase” value (neutrophil elastase; product 1806 Da from 2430 Da) is reported as “between residues Ala-588 and Leu-589; also recorded: last five residues were removed by EL”.

“VPRPLL [mouse Pgrn584–589, mouse ortholog peptide of PGRN588–593, -VPRPLL]” was tested, and the “inhibition of PGRN–SORT1 co-immunoprecipitation” value (PGRN-SORT1 interaction) was “significantly reduced the amount of rPGRN” and the “inhibition of full-length PGRN endocytosis” value [1] was 73%.

B1: rPGRN1-588: recombinant carboxyl-terminal-truncated PGRN 1–588 (protein)
chain: TRCPDGQFCPVACCLDPGGASYSCCRPLLDKWPTTLSRHLGGPCQVDAHCSAGHSCIFTVSGTSSCCPFPEAVACGDGHHCCPRGFHCSADGRSCFQRSGNNSVGAIQCPDSQFECPDFSTCCVMVDGSWGCCPMPQASCCEDRVHCCPHGAFCDLVHTRCITPTGTHPLAKKLPAQRTNRAVALSSSVMCPDARSRCPDGSTCCELPSGKYGCCPMPNATCCSDHLHCCPQDTVCDLIQSKCLSKENATTDLLTKLPAHTVGDVKCDMEVSCPDGYTCCRLQSGAWGCCPFTQAVCCEDHIHCCPAGFTCDTQKGTCEQGPHQVPWMEKAPAHLSLPDPQALKRDVPCDNVSSCPSSDTCCQLTSGEWGCCPIPEAVCCSDHQHCCPQGYTCVAEGQCQRGSEIVAGLEKMPARRASLSHPRDIGCDQHTSCPVGQTCCPSLGGSWACCQLPHAVCCEDRQHCCPAGYTCNVKARSCEKEVVSAQPATFLARSPHVGVKDVECGEGHFCHDNQTCCRDNRQGWACCPYRQGVCCADRRHCCPAGFRCAARGTKCLRREAPRWDAPLRDPA
modifications: left off: His6, N-terminal, state not stated
B1 was tested, and the “endocytosis of rPGRN” value (SORT1 [2]) was “failed to be endocytosed”.

B2: DyL-rPGRN: DyLight™-594 fluorescence-labeled rPGRN (conjugate, UniProt P28799 1-593, looked up)
chain: MWTLVSWVALTAGLVAGTRCPDGQFCPVACCLDPGGASYSCCRPLLDKWPTTLSRHLGGPCQVDAHCSAGHSCIFTVSGTSSCCPFPEAVACGDGHHCCPRGFHCSADGRSCFQRSGNNSVGAIQCPDSQFECPDFSTCCVMVDGSWGCCPMPQASCCEDRVHCCPHGAFCDLVHTRCITPTGTHPLAKKLPAQRTNRAVALSSSVMCPDARSRCPDGSTCCELPSGKYGCCPMPNATCCSDHLHCCPQDTVCDLIQSKCLSKENATTDLLTKLPAHTVGDVKCDMEVSCPDGYTCCRLQSGAWGCCPFTQAVCCEDHIHCCPAGFTCDTQKGTCEQGPHQVPWMEKAPAHLSLPDPQALKRDVPCDNVSSCPSSDTCCQLTSGEWGCCPIPEAVCCSDHQHCCPQGYTCVAEGQCQRGSEIVAGLEKMPARRASLSHPRDIGCDQHTSCPVGQTCCPSLGGSWACCQLPHAVCCEDRQHCCPAGYTCNVKARSCEKEVVSAQPATFLARSPHVGVKDVECGEGHFCHDNQTCCRDNRQGWACCPYRQGVCCADRRHCCPAGFRCAARGTKCLRREAPRWDAPLRDPALRQLL
modifications: full-length DyLight 594 label
notes: DyLight™-594 fluorescence-labeled rPGRN
For B2, the DyL-rPGRN endocytosis signal [3] was “significantly lower signal compared with the WT-hESCs” and the DyL-rPGRN endocytosis response ([1]; COS-1^SORT1, DyL-rPGRN 0 to 50 nM, 593/618 nm) was “linear, non-saturated endocytosis response”.

B3: rPGRN: wild-type human recombinant PGRN protein from stable HEK293 cells (protein)
chain: TRCPDGQFCPVACCLDPGGASYSCCRPLLDKWPTTLSRHLGGPCQVDAHCSAGHSCIFTVSGTSSCCPFPEAVACGDGHHCCPRGFHCSADGRSCFQRSGNNSVGAIQCPDSQFECPDFSTCCVMVDGSWGCCPMPQASCCEDRVHCCPHGAFCDLVHTRCITPTGTHPLAKKLPAQRTNRAVALSSSVMCPDARSRCPDGSTCCELPSGKYGCCPMPNATCCSDHLHCCPQDTVCDLIQSKCLSKENATTDLLTKLPAHTVGDVKCDMEVSCPDGYTCCRLQSGAWGCCPFTQAVCCEDHIHCCPAGFTCDTQKGTCEQGPHQVPWMEKAPAHLSLPDPQALKRDVPCDNVSSCPSSDTCCQLTSGEWGCCPIPEAVCCSDHQHCCPQGYTCVAEGQCQRGSEIVAGLEKMPARRASLSHPRDIGCDQHTSCPVGQTCCPSLGGSWACCQLPHAVCCEDRQHCCPAGYTCNVKARSCEKEVVSAQPATFLARSPHVGVKDVECGEGHFCHDNQTCCRDNRQGWACCPYRQGVCCADRRHCCPAGFRCAARGTKCLRREAPRWDAPLRDPALRQLL
modifications: left off: His6, N-terminal, state not stated
In the case of B3, the “endocytosis of rPGRN” value (SORT1 [2]) is reported as “significantly endocytosed”, the “subcellular localization after endocytosis” value (SORT1 [2]; M17 cells overexpressing SORT1) is reported as “endolysosomal localization” and the “SORT1 level after rPGRN treatment” value (SORT1 [4]) is reported as “No significant changes in SORT1”.

Reference: paper PMC3929086, “Targeted manipulation of the sortilin–progranulin axis rescues progranulin haploinsufficiency” (Human Molecular Genetics, 2013)
